Source: ChEMBL document CHEMBL1201862, “PubChem BioAssay data set” (2004)
Active and inactive are the calls of the source.

Legend:
[1] = target: DNA repair and recombination protein RAD54-like (Homo sapiens, UniProt Q92698); test: RAD54 Holliday junction migration blockers – biochemical, fluorescence, cherry-picked samples, dose series, confirmation (AID 651657); type: functional
[2] = target: DNA repair protein RAD52 homolog (Homo sapiens, UniProt P43351); type: functional, biochemical
[3] = T. cruzi growth inhibition in host cells, dose response, cell-based, plate reader, dry powder, set 2 (AID 652275); type: functional
[4] = NIH3T3 cell viability loss – ATP luminescence, mouse fibroblasts, counter-screen, dose response (AID 2010); type: functional, cell-based;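 further: cells exposed to compound for about 90 hours before reading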
[5] = target: T1, Ubiquitin-conjugating enzyme E2 N (Homo sapiens, UniProt P61088); type: functional;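 further: Dose-response confirmation in a TR-FRET assay detecting UBC13-driven polyubiquitin chain formation, inhibition measured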
T1 sequence (P61088 whole entry): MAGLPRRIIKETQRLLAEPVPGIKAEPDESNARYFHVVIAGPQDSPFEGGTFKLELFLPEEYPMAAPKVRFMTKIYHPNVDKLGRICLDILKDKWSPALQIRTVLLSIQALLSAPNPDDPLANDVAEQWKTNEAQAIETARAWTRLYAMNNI

Trypsin = Trypsin (Sus scrofa, UniProt P00761); test: trypsin protease activity blockade – biochemical, quenched peptide fluorescence, cherry-pick, selectivity assay for Rce1 protease inhibitor project, dose response (AID 488789)
CAAX prenyl protease 2 = target: T2, CAAX prenyl protease 2 (Homo sapiens, UniProt Q9Y256); test: inhibition of Ras-converting CAAX protease Rce1 – biochemical, yeast membranes, quenched-peptide fluorescence, cherry-pick, dose response (AID 588849)
T2 sequence (Q9Y256 whole entry): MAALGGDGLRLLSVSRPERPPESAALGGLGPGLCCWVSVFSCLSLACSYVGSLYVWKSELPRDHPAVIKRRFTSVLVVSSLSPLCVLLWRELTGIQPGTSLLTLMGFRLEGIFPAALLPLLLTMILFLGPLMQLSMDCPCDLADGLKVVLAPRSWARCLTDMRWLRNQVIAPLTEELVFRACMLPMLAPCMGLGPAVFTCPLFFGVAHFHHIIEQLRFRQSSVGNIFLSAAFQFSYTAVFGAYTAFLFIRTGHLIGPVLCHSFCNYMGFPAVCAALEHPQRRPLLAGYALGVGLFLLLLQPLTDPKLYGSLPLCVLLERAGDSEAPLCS

[6] = Trypanosoma cruzi growth suppression in host cells – NIH3T3 host cells, beta-gal luminescence, confirmation (AID 2044); type: functional, cell-based;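 further: intracellular parasites grown in NIH/3T3 mouse fibroblasts as host cells; luminescent beta-galactosidase reporter signal from transgenic T. cruzi replicating inside host cells; inhibitors lower the luminescence signal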
Protein Wnt-3a = Protein Wnt-3a (Mus musculus, UniProt P27467); test: SAR analysis of small molecule antagonists of Gli-SUFU in a Wnt3a luminescent reporter assay.; type: functional
[7] = target: Protein disulfide-isomerase (Homo sapiens, UniProt P07237); test: inhibition of PDI-mediated insulin reduction – biochemical, turbidity, dry powder samples, set 2, confirmation (AID 652146)
[8] = target: T3, Oxysterols receptor LXR-beta (Homo sapiens, UniProt P55055); type: functional, cell-based;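 further: agonist activity at LXR measured by a cell-based luminescence readout across a dose range, run as a counterscreen for daf-12 agonists; HEK293 cells with Gal4-LXR fusion and GAL4-driven luciferase reporter; potency for activation of Gal4-LXR reporter so compounds are agonists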
T3 sequence (P55055 whole entry): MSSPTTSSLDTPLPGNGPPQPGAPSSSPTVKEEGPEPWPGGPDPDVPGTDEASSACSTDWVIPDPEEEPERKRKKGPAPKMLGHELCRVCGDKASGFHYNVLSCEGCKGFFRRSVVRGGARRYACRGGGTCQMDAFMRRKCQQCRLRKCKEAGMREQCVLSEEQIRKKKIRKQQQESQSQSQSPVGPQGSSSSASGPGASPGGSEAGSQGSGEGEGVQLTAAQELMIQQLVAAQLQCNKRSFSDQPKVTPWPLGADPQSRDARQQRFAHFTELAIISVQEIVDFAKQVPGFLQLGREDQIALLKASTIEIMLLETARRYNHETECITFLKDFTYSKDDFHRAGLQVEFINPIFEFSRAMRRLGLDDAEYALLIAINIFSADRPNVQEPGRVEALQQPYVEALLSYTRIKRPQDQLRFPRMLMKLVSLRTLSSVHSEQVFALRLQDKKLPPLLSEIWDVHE

[9] = target: FAD-linked sulfhydryl oxidase ALR (Homo sapiens, UniProt P55789); test: ALR-catalysed DTT oxidation blockers – biochemical, H2O2 detection, luminescence, cherry-pick, dose response (AID 493248)
[10] = viability loss in HepG2 hepatoma cells – cell-based, ATP luminescence, cherry-pick, activator set 2, cytotoxicity control, dose response (AID 1053143); type: functional
[11] = target: T4, High affinity choline transporter 1 (Homo sapiens, UniProt Q9GZV3); test: human choline transporter blockers, potency – cell-based, 5-point CRC, membrane potential dye, dose response (AID 504840); type: functional
T4 sequence (Q9GZV3 whole entry): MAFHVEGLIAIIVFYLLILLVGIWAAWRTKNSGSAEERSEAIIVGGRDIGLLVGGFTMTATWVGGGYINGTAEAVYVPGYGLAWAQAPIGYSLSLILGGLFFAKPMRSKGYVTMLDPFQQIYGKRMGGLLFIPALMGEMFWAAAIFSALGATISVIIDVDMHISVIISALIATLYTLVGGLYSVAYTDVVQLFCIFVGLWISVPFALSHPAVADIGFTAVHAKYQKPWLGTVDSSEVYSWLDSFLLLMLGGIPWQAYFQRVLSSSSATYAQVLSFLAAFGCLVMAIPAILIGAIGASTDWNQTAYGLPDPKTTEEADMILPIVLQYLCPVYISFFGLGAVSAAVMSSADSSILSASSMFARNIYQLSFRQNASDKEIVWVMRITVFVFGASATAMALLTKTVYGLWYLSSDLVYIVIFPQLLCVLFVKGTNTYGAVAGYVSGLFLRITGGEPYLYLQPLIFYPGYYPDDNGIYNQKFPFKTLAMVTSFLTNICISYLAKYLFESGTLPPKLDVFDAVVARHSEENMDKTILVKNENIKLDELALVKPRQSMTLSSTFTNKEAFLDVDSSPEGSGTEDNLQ

[12] = HGIII-sPLA2 enzyme inhibition potency – biochemical, QFRET, IC50, dose response (AID 743457);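 further: green fluorescence rise as the enzyme cleaves BODIPY PC-A2 in liposomes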

Protein Wnt-3a, sequence (P27467 whole entry): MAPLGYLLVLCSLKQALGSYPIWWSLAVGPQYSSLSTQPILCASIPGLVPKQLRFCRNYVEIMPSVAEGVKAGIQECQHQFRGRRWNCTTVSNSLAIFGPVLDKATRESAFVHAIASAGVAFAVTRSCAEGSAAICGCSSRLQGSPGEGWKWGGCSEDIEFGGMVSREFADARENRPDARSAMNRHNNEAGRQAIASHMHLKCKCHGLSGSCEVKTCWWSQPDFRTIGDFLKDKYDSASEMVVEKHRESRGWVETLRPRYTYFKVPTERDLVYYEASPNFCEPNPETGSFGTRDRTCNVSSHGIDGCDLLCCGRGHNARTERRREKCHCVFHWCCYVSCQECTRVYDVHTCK
DNA repair protein RAD52 homolog, sequence (P43351 whole entry): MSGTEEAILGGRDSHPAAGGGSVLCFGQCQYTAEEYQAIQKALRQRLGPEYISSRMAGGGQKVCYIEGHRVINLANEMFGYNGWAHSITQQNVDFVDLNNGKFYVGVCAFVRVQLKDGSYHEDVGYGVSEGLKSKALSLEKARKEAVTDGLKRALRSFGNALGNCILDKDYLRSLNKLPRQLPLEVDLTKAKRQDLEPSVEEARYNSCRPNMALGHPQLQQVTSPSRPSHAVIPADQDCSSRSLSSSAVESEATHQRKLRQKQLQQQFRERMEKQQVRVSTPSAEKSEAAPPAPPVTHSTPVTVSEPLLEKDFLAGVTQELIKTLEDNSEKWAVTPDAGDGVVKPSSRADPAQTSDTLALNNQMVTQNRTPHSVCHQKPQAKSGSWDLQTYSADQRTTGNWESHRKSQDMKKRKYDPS
Protein disulfide-isomerase, sequence (P07237 whole entry, the tested form may be a part): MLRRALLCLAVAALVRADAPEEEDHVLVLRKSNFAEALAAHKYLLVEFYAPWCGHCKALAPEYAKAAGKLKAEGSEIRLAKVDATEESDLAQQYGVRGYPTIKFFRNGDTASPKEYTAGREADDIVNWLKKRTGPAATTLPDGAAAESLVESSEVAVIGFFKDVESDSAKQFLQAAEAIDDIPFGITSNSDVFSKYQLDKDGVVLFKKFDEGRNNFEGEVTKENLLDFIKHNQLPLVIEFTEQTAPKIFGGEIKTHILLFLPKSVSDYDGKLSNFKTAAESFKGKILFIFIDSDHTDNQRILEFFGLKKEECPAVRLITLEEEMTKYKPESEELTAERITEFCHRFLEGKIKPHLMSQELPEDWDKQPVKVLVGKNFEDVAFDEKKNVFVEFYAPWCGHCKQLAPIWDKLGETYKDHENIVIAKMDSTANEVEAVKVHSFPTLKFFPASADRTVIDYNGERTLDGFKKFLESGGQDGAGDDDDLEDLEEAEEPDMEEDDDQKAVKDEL
FAD-linked sulfhydryl oxidase ALR, sequence (P55789 whole entry): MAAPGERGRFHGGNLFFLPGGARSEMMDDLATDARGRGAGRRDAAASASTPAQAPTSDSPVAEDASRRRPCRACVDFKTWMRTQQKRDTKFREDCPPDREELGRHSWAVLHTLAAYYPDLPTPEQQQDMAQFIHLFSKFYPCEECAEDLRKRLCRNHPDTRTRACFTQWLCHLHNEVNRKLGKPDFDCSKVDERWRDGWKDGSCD
DNA repair and recombination protein RAD54-like, sequence (Q92698 whole entry): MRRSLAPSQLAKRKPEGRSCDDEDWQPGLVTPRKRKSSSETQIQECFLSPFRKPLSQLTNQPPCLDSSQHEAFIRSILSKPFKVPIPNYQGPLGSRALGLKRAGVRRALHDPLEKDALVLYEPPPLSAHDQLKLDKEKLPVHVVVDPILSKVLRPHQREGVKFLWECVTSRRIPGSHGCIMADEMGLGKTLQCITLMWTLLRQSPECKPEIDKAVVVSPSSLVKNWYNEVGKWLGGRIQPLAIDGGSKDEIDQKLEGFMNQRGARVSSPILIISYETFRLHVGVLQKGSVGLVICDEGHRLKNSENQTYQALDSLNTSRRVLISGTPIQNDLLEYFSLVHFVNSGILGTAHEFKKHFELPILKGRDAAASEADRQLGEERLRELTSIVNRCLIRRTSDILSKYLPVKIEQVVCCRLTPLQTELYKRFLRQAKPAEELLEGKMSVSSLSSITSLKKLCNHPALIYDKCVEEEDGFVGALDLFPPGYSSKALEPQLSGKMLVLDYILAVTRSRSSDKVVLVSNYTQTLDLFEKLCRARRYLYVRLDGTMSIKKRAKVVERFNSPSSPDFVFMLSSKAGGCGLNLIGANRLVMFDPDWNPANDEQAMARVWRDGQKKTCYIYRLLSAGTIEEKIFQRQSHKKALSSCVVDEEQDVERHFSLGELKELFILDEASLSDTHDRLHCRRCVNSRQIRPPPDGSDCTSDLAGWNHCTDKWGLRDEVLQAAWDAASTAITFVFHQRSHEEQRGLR
Trypsin, sequence (P00761 whole entry): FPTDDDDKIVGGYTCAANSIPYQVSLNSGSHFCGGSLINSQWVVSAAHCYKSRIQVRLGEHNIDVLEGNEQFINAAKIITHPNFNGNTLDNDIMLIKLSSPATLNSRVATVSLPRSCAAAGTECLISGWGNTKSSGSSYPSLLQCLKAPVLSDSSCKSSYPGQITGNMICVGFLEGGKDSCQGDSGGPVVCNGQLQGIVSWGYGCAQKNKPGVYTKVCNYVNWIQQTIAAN

## CN(C)CCCN(C(=O)c1ccc([N+](=O)[O-])o1)c1nc2cc3c(cc2s1)OCO3
[1]
  AC50: 24.6 µM (active)
[2]
  AC50: 10.5 µM (active)

## O=C(c1ccc(F)cc1)N1CCCCN2[C@@H](CO)[C@H](c3ccc(-c4ccccc4)cc3)[C@@H]2C1
[3]
  AC50: 2.56 µM (active)

## CCOC(=O)c1c(-c2ccccc2)oc2ccc(OCC(O)CNCCN(C)C)cc12 (stereo not drawn)
[4]
  EC50: 5.42 µM (active)
[5]
  IC50: > 20 µM (inactive)
[2]
  AC50: 5 µM (active)
Trypsin
  AC50: 10.3 µM (active)
CAAX prenyl protease 2
  AC50: 11.8 µM (active)
[6]
  EC50: 1.79 µM (active)

## CCN(CC)c1cc(NC(=O)c2cc(OC)cc(OC)c2)ncn1
Protein Wnt-3a
  IC50: > 21.8 µM (inactive)

## O=C(NC1CCCC1)C1(CCOc2ccccc2)CCN(Cc2ccc(O)c(Cl)c2)CC1
[7]
  AC50: 5 µM (active)

## CC(C)N1CC2(CN(Cc3ccc(-c4cccnc4)cc3)C2)Oc2c(NC(=O)c3ccncc3)cccc2C1=O
[3]
  AC50: 0.179 µM (active)

## Cc1nn(-c2ccccc2)c(Cl)c1/C=N/Nc1ccc(Cl)c(C(=O)O)c1
[8]
  EC50: > 67.5 µM (inactive)
[9]
  AC50: 907 nM (active)

## Cc1ncoc1C(=O)Nc1ncc([N+](=O)[O-])s1
[10]
  AC50: 26 µM (active)

## O=C(NN=C(S)Nc1ccc(F)cc1)C1CC1c1ccc(Cl)cc1 (stereo not drawn)
[11]
  IC50: 13.2 µM (active)
[12]
  IC50: > 122 µM (inactive)

## CCN(CC)c1cc(NC(=O)c2ccccc2)ncn1
Protein Wnt-3a
  IC50: > 21.8 µM (inactive)
